ChEMBL document CHEMBL3046764, “Heterocyclic ortho-quinones, a novel type of Photosystem II inhibitors” (Biochim Biophys Acta, 2001)
Activity calls are given as the source filed them. No cut-off for these calls is given here.

Biological target: Photosystem II protein D1 (Chlamydomonas reinhardtii) (UniProt P07753)
Test: Non-competitive displacement of [14C]atrazine from Chlamydomonas reinhardtii photosystem II protein D1 assessed as DCIP-reduction by double-reciprocal plot

## CCCCCCCC1=C(Br)c2nc3ccccn3c2C(=O)C1=O
  Activity: Active
